The subject of assay [1] is HCT-116. The experiment in a line: Cytotoxicity against human HCT116 cells by SRB assay. Format: functional, cell-based. For orientation: The SRB assay estimates cell density from bound dye.
Assay [2] addresses T1, Poly [ADP-ribose] polymerase 1 (Homo sapiens, UniProt P09874). The experiment in a line: Inhibition of PARP1 (unknown origin).
Assay [3] concerns HCT-116. Put plainly: Potency index, ratio of IC50 for veliparib to IC50 for test compound against human HCT116 cells. Type of assay: functional.
Assay [4] deals with T1, Poly [ADP-ribose] polymerase 1. Conditions: A549.
Description: Inhibition of PARP1 in human A549 cells assessed as potentiation of TMZ-mediated cytotoxicity at 0.5 uM by SRB assay

One may read the IC50 as the concentration that gives 50% inhibition. Low values mean higher potency, high ones lower potency.

T1 sequence (P09874 whole entry): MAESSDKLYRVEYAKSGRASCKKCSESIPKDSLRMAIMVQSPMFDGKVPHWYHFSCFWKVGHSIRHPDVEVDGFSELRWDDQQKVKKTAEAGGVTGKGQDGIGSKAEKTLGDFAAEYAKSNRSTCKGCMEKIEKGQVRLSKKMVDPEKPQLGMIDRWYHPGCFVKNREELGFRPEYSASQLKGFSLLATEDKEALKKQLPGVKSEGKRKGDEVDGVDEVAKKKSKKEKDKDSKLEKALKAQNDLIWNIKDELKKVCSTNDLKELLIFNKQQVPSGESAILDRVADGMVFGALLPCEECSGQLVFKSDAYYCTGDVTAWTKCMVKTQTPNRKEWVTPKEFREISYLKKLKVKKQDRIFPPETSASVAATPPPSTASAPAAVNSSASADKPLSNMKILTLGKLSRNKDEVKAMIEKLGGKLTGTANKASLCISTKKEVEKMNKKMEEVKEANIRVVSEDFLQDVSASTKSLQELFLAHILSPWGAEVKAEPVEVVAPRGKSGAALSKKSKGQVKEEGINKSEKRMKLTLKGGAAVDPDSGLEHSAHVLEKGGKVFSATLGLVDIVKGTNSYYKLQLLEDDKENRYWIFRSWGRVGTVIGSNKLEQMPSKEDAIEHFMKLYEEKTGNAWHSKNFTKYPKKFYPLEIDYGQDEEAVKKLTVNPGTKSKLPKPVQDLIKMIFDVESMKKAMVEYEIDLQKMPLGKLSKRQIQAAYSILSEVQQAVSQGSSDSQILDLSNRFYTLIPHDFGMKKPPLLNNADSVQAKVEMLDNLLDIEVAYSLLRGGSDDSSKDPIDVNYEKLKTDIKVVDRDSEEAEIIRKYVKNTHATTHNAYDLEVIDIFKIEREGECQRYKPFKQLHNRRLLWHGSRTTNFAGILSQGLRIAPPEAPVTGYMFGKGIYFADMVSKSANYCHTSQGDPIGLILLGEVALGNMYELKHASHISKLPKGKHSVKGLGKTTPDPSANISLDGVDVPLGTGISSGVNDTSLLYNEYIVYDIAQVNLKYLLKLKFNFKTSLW

As for `NC(=O)c1c(F)ccc2[nH]c(C3CCNCC3)nc12`, the half-inhibitory concentration (IC50) with HCT-116 [1] (Homo sapiens, HCT-116) is greater than 100000 nM; in assay [2], 39.1 nM.

As for `CN1CCC[C@@]1(C)c1nc2c(C(N)=O)c(F)ccc2[nH]1`, the concentration for half-maximal inhibition (IC50) is greater than 100000 nM in the assay on HCT-116 [1] (Homo sapiens, HCT-116) and 21.7 nM in assay [2].

Consider `NC(=O)c1c(F)ccc2[nH]c(-c3ccc(N4CCNCC4)cc3)nc12`, for which the 50% inhibitory concentration (IC50) with HCT-116 [1] (Homo sapiens, HCT-116) stood at 7400 nM; in assay [2], 43.7 nM. For the same molecule, the “Ratio IC50” value with HCT-116 [3] came to 8.6.

For the molecule `C[C@]1(c2nc3c(C(N)=O)c(F)ccc3[nH]2)CCCN1`, the IC50 in the assay with HCT-116 [1] (Homo sapiens, HCT-116) was greater than 100000 nM; in assay [2], 5.7 nM.

Turning to `CCCN1CCC(c2nc3c(C(N)=O)c(F)ccc3[nH]2)CC1`, the half-inhibitory concentration (IC50) in the assay with HCT-116 [1] (Homo sapiens, HCT-116) turned out to be 65500 nM; in assay [2] it was 29.8 nM.

For the molecule `C[C@]1(c2nc3c(C(N)=O)cccc3[nH]2)CCCN1` [VELIPARIB], in the assay on HCT-116 [1] (hct-116), inhibition was half-maximal at 64000 nM (IC50). Further, the PF50 in assay [4] amounted to 2.2.

For the molecule `NC(=O)c1c(F)ccc2[nH]c(-c3ccc(N4CCOCC4)cc3)nc12`, the IC50 was determined as 27000 nM in the assay on HCT-116 [1] (Homo sapiens, HCT-116) and 21.8 nM in assay [2]. Further, the “Ratio IC50” value with HCT-116 [3] worked out at 2.3.

In assay [2], `NC(=O)c1c(F)ccc2[nH]c(C3CCCNC3)nc12` (configuration not stated) had an IC50 of 25.8 nM.

The values above are taken from ChEMBL document CHEMBL4431318, “Design, synthesis and biological evaluation of novel 5-fluoro-1H-benzimidazole-4-carboxamide derivatives as potent PARP-1 inhibitors” (Bioorg Med Chem Lett, 2016).
